Where two headings read alike, the source gives them in different places.
Assays:
[1] = target: T1, Kv2.1 (Rattus norvegicus, UniProt P15387); test: Two-electrode voltage clamp (TEVC) of Xenopus oocytes expressing Kv2.1, bath-applied compound; assay type: cell-based; conditions: for slope of dose response curve: Kv2.1, Example 8; for mean inhibition at 0 mV relative to +60 mV: Kv2.1, voltage dependence of block; for relative sensitivity of Kv2.1 and Kv3.4: Kv2.1 versus Kv3.4; for effect on Kv2.1 currents: 1 mM, bath applied
T1 construct: expressed in transfected cells; host or cells: Xenopus laevis oocytes (cRNA injection, pGA1 vector)
From the text: The ion channel subunit genes are in expression vectors that facilitate in vitro transcription of channel cRNA using the Ambion mMessage mMachine in vitro transcription kit. cDNA constructs are column-purified, linearized with the appropriate restriction enzyme that cuts a single site following the polyA tail, then purified by precipitation and transcribed in vitro using a promoter, such as T7, T3 and SP6. Transcribed cRNA is purified by precipitation and resuspended in RNAse-free water ready for injection. Each transcription can provide enough cRNA for several months of experiments.
Stage V-VI Xenopus oocytes are separated into small groups using forceps, defolliculated by agitation in Ca^2+-free Ringer solution containing collagenase for one hour, washed, then stored at 15° C. in full Ringers solution before injection. cRNA sufficient to give 1-10 μA of current at physiological voltages for each channel type is injected into Xenopus oocytes (selected by appearance for overall health and uniformity of color) using a Sutter manual injector (typically 0.1-5 ng cRNA in a volume of 25-50 nl). The oocytes are then stored for 1-3 days at 15° C. before TEVC recording. Beta subunit cRNA is co-injected as appropriate, typically 2 ng per oocyte.
Whole cell oocyte experiments are performed using a Warner OC-725C amplifier and pClamp9 software with oocytes bathed in a small-volume Warner oocyte bath and viewed with a Fisher dissection microscope. Bath solution for whole cell oocyte recordings, e.g., for potassium channel analysis, is generally (in mM): 96 NaCl, 4 KCl, 1 MgCl2, 0.3 CaCl2, 10 HEPES (Ph 7.4); whole-cell oocyte TEVC pipettes are filled with 3 M KCl. Oocyte patches are studies using an Axon Instruments small-volume bath, viewed with an Olympus IX50 inverted microscope, and recordings made using an Axon Multiclamp 700 A Amplifier and pCLAMP9 software (Axon Instruments). Extracellular solution, e.g., for potassium channel analysis, is generally (in mM): 135 NaCl, 5 KCl, 1.2 MgCl2, 5 HEPES, 2.5 CaCl2, 10 D-glucose (Ph 7.4). Intracellular solution, e.g., for potassium channel analysis, is generally (in mM): 10 NaCl, 117 KCl, 2 MgCl2, 11 HEPES, 11 EGTA, ICaCl2 (Ph 7.2). Patch pipettes are approximately 3-5 MΩ resistance when filled with recording solution.
Quantitative aspects of ion action on ion channels are compared using standard pulse protocols. Pulse times and voltages will vary according to which currents are being studied. […] Drug inhibition constants are calculated after generating a dose response curve by fitting with a logistic dose-response function (see equation (i) below). Typically, 5-20 cells per group are recorded from for heterologous expression experiments. Values are to be stated as mean±SEM with statistical significance set at p<0.05 (unpaired students t-test, ANOVA or the Mann-Whitney Rank Sum Test as appropriate).
Injected oocytes, bathed in bath solution containing 4 mM KCl, unless otherwise stated, are impaled with current and voltage electrodes and clamped at −80 mV holding potential using a Warner OC-725C amplifier. […] Drug concentrations are chosen to ensure inhibition values between 0 and 90-100% with at least 3 values within the linear portion of the curve so that the inhibition constant (Ki) can be calculated accurately by fitting with a logistic dose-response function (formula (i)) using the Origin 6.1 graph package.
Kv2.1 mutants were constructed using the QuickChange Multi Site-Directed Mutagenesis Kit (Stratagene, La Jolla, Calif.). […] For oocyte expression, Kv3.4 was in pBF1, Kv4.2 was in pRAT. cRNA transcripts were produced from SacII-linearized (Kv2.1), Mlullinearized (Kv3.4) and Not1-linearized (Kv4.2) DNA templates using the T3 (Kv2.1), SP6 (Kv3.4) and T7 (Kv4.2) mMessage mMachine kits (Ambion, Austin, Tex.). cRNA was quantified by spectrophotometry and its size integrity verified by gel electophoresis.

[2] = tested on: oocytes; test: Toxicity / nonspecific leak in oocytes during dose-response recording; assay type: cell-based, Xenopus laevis
Experimental: Whole-cell two-electrode voltage-clamp (TEVC) recordings were performed on X laevis oocytes expressing cloned Kv2.1, Kv3.4 or Kv4.2 using a Warner OC-725C amplifier and pClamp9 (Axon Instruments, Foster City, Calif.) software. Oocytes were bathed in a small-volume Warner oocyte bath and viewed with a Fisher dissection microscope. Bath solution for whole-cell oocyte recordings was (in mM): 96 NaCl, 4 KCl, 0.7 MgCl2, 1 CaCl2, 10 HEPES (pH 7.4); whole-cell oocyte TEVC pipettes were of 0.2-2 M resistance when filled with 3 M KCl. Experiments were performed 24-48 hours after cRNA injection. For assessment of current-voltage relationships in the absence or presence of dabco derivatives, oocytes were held at −80 mV, stepped for 2 seconds at voltages between −80 mV and +60 mV in 20 mV steps (Kv2.1) or between −80 and +50 mV in 10 mV steps (Kv3.4), then held for 500 ms at −40 mV before returning to the holding potential. For assessment of block during wash-in of dabco derivatives at a single voltage, oocytes were held at −80 mV, and repetitively stepped to 0 mV for 2 s with an interpulse interval of 10 s or 60 s as indicated. […]

[3] = IC50, Kv2.1, logistic dose response fit, Example 8

T1 sequence (P15387 whole entry): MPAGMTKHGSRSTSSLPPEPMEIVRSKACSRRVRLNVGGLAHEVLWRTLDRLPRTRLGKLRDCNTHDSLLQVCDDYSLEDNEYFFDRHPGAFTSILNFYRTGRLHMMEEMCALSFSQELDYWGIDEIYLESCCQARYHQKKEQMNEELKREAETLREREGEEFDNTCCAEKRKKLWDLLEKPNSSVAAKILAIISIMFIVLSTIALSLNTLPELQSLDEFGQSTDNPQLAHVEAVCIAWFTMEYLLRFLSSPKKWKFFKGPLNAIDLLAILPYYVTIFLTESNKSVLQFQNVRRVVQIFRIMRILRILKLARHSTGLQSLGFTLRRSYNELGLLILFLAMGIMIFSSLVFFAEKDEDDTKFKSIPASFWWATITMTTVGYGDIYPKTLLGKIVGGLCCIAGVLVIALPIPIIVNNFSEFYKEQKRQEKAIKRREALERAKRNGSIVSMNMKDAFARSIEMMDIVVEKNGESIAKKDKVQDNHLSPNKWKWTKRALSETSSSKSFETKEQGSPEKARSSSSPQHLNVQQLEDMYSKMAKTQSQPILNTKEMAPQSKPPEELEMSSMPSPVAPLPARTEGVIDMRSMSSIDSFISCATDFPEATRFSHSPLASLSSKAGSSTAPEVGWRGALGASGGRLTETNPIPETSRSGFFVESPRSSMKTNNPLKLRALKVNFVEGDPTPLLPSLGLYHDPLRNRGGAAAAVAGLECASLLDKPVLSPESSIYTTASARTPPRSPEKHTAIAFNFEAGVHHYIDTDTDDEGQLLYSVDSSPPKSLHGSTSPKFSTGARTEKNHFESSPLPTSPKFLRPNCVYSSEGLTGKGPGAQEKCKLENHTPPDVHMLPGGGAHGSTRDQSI

Compound | slope of dose response curve [1] | mean inhibition at 0 mV relative to +60 mV [1] | p (Hill slope) of logistic dose-response fit ([1]; Kv2.1 alone, Example 4) | IC50 [1, 3] | relative sensitivity of Kv2.1 and Kv3.4 [1] | effect on Kv2.1 currents [1] | further results
CCCCCCCCCCCC[N+]12CCN(CC1)CC2 [JE188, 1-aza-4-azonia-4-dodecylbicyclo[2.2.2]octane] | 1.4±0.1 | 3 fold | 1.4±0.1 |  |  |  | inhibition of Kv2.1 ([1]; 50 μM): significantly inhibited; inhibition of Kv2.1 ([1]; 250 μM): almost complete inhibition; IC50 ([1]; Kv2.1 alone, external bath application, Example 4, read-out: x0 of logistic dose-response fit of current inhibition (converted)): 23.3 ± 2.1 µM; sensitivity of Kv2.1 currents to compound relative to tetraethylammonium ([1]; externally applied): 500 fold
C(CCCC[N+]12CCN(CC1)CC2)CCC[N+]12CCN(CC1)CC2 [TG27, 1,8-[bis(4-aza-1-azoniabicyclo[2.2.2]octanyl)]octane] | 2.1±0.8 |  |  | 270 ± 66.4 µM | Kv2.1 was more sensitive than Kv3.4 |  | concentration at which nonspecific leak began ([2]; Kv3.4 dose response): above 1 mM
c1cc(C[N+]23CCN(CC2)CC3)ccc1C[N+]12CCN(CC1)CC2 [JC638.2α, α,α′-[bis(4-aza-1-azoniabicyclo[2.2.2]octanyl)]p-xylene] | 1.4±0.1 |  |  |  | significantly differentiate between Kv2.1 and Kv3.4 | significant inhibition | IC50 ([1]; Kv2.1, logistic dose response fit, Example 8, read-out: IC50): 186 ± 17 µM; voltage dependence of block ([1]; inhibition attenuated at more positive voltages): voltage dependent block
C(CC[N+]12CCN(CC1)CC2)C[N+]12CCN(CC1)CC2 [TG26] |  |  |  |  | Kv2.1 was more sensitive than Kv3.4 | less effective than TG27 | toxicity to oocytes ([2]; doses required to produce >50% block): toxic to the oocytes
CCCCCCCCCCCCCCCC[N+]12CCN(CC1)CC2 [TA279, 1-aza-4-azonia-4-hexadecylbicyclo[2.2.2]octane] | 0.6±0.4 | 3 fold | 0.8±0.1 | 1.9 ± 3.6 µM |  |  | sensitivity of Kv2.1 currents to TA279 relative to JE188 [1]: 20 fold; inhibition of Kv2.1 ([1]; 1 μM): inhibiting; inhibition of Kv2.1 ([1]; 5 mM): almost complete inhibition; time for washout ([1]; compared with TEA): several minutes; IC50 ([1]; x0 of logistic dose-response fit of current inhibition, Kv2.1 alone, external bath application, Example 4): 1 ± 0.8 µM

From US8143254B2, “Methods for modulating ion channels” (Cornell Research Foundation, Inc., priority 2005, dated 2012)
